# Measured values published in patent US5474988A, “5-phenylpyrrolo-1,4-benzoxazine and 5-phenylpyrrolo-1,4-benzothiazine compounds, process and intermediates for their production and pharmaceutical compositions containing them” (Kali-Chemie Pharma GmbH, priority 1993, dated 1995).
# What was measured:
# [1] = tested on: P.A.F.-induced aggregation of blood platelets; test: anti-P.A.F. action in vitro (P.A.F.-induced platelet aggregation); type: cell-based; details: Oryctolagus cuniculus, 10^-5 mole/liter, read-out: Anti-P.A.F. activity in vitro, % inhibition of the P.A.F.-induced aggregation of blood platelets from rabbit blood
# Method in brief: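 Washed rabbit platelets (4×10^9/ml stock suspension, aspirin-lysine treated) in modified Tyrode buffer pH 7.4 with 1.3 mM CaCl2 and gelatine; test substance at 10^-5 mol/l final, 90 s preincubation before P.A.F. Aggregation followed 4-5 min by aggregometer; % inhibition of P.A.F.-induced aggregation increase calculated.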
# [2] = tested on: cutaneous histamine induced anaphylactoid reactions; test: inhibition of the anaphylactoid cutaneous reaction induced by histamine; type: in vivo, Sprague-Dawley rats; details: Rattus norvegicus, po, 0.5 h; 2 × 10^-5 mole/kg p.o., one hour before histamine; assessed 30 minutes after provocation; read-out: Inhibitory action against cutaneous histamine induced anaphylactoid reactions in rats, % inhibition
# Protocol: 1. Determination of the inhibition of the anaphylactoid cutaneous reaction induced by histamine.
# The inhibition of the anaphylactoid cutaneous reaction induced by histamine was determined in Sprague-Dawley rats having body weights of 150-180 g.
# In order to determine the histamine-induced anaphylactoid skin reaction, 50 μl of a physiological saline solution containing 0.8 mg/ml of histamine were injected into the animals intradermally on one flank. Immediately afterward, a solution of 26.4 mg/kg of a blue dye (Evan's Blue) was administered i.v. to the animals.
# The test substances were dissolved in distilled water which contains 1% by volume of dimethylformamide and 1% by volume of Tween®20 (=polyoxyethylene(20) sorbitan monolaurate). One hour before the histamine injection, each animal received 2×10^-5 mol/kg of test substance, in each case administered orally in 0.5 ml of solution. A control group received only the solvent for comparison.
# The histamine-induced anaphylactoid reactions which manifested themselves by edema formation, swelling and exudation of blue dye are assessed 30 minutes after provocation by the histamine injection. This is carried out by visual determination of the extent of the exudation of blue dye at the sites of edema formation. With the aid of comparison scales, the percentage inhibition of the anaphylactoid reactions produced by the test substances is determined in comparison with the reactions of the control animals not treated with test substance.
# The results obtained with compounds of the formula I by the above test method are reproduced in the following table A. The example numbers given as identifiers for the compounds of formula I refer to the subsequent preparative examples.
# 5-lipoxygenase = test: inhibition of 5-lipoxygenase activity in polymorphonuclear rat leucocytes (LTB4 formation); type: cell-based; details: 10^-5 mol/l; 22° C.
# Method in brief: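 Thioglycolate-elicited peritoneal PMNs from male Sprague-Dawley rats (0.5×10^6 cells) preincubated 15 min at 22 °C with 10 μM compound in HEPES-buffered HBSS, then stimulated with 5 μM calcimycin for 10 min. LTB4 quantified by reverse-phase HPLC at 270 nm; % inhibition versus solvent control.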
# male mice = details: mouse, in vivo, po, 1440 min
# Protocol: 2. Determination of the minimum toxic dose.
# Maximum doses of 300 mg/kg of the test substance were administered orally to male mice each weighing 20-25 g. The animals were carefully observed for symptoms of toxicity for 3 hours. All symptoms and deaths were additionally recorded over a period of 24 hours after administration. Associated symptoms were likewise observed and recorded. If death or severely toxic symptoms were observed, increasingly lower doses were administered to further mice. The lowest dose which caused death or severely toxic symptoms is indicated as the minimum toxic dose in the following Table B: […]
compound,measurement,setting,value
Cc1ccnc(N2CCN(CCC3Cn4c(-c5ccc(O)cc5)c(C)c5c(Cl)ccc(c54)O3)CC2)c1 (stereo not shown) [Example 19],inhibition at 10 µM,[1],71%
same,inhibition in vivo at 20 µmol/kg,[2],45%
same,In vitro inhibitory activity on LTB4 formation in rat PMNs stimulated by calcium ionophore A23187,5-lipoxygenase,45%
same,Minimum toxic dose,male mice,> 300 mg/kg
